Each molecule was assayed on BV-2 (assay: Antiinflammatory activity in mouse BV2 cells assessed as inhibition of LPS-induced nitric oxide production after 24 hrs by griess assay). Settings: BV-2, 24 h.
Format: functional, cell-based

SMILES	IC50
OC/C=C/c1ccc(O)c(/C=C/[C@@]23CCC(CO)=C[C@H]2c2cc(/C=C/CO)ccc2O[C@H]3O)c1	> 50 µM
COc1ccc2ccc(=O)oc2c1C(=O)C(OC(=O)CC(C)C)=C(C)C	37.6 µM
C=C(C)[C@@H]1O[C@H](C(=C(C)C)c2c(OC)ccc3ccc(=O)oc23)O[C@@H]1c1c(OC)ccc2ccc(=O)oc12	37.6 µM
C=C(C)[C@H](O)[C@H](C[C@@](C)(O)/C=C/c1c(OC)ccc2ccc(=O)oc12)c1c(OC)ccc2ccc(=O)oc12	28.9 µM
O=c1c(O)c(-c2ccc(O)c(O)c2)oc2cc(O)cc(O)c12 [QUERCETIN]	7.2 µM

The remaining lines, values ahead:

IC50	SMILES
15.5 µM	C=C(C)C(O)Cc1c(OC)cc(OC)c2ccc(=O)oc12 (stereo unspecified)
11.8 µM	C=C(C)/C=C/c1c(OC)ccc2ccc(=O)oc12
21.3 µM	C=C(C)[C@H](OC(=O)CC(C)C)[C@H](O)c1c(OC)ccc2ccc(=O)oc12
8.6 µM	OC/C=C/c1ccc(O)c(/C=C/[C@]23CCC(CO)=C[C@H]2c2cc(/C=C/CO)ccc2O[C@H]3O)c1
26.4 µM	C=C(C)[C@H](O)[C@H](OC(=O)CC(C)C)c1c(OC)ccc2ccc(=O)oc12
16.9 µM	COc1ccc2ccc(=O)oc2c1/C=C\C(C)=O

— ChEMBL document CHEMBL4130612, “Anti-Inflammatory Prenylated Phenylpropenols and Coumarin Derivatives from Murraya exotica” (J Nat Prod, 2018)
